# Assay results taken from US20240423207A1, “PICOLINAMIDE COMPOUNDS WITH FUNGICIDAL ACTIVITY” (CORTEVA AGRISCIENCE LLC, priority 2014, published 2024).
# Like-named read-outs stand apart in the source and are kept apart here.
# Assays:
# [1] = system: Mycosphaerella graminicola; Anamorph: Septoria tritici; assay: Leaf Blotch of Wheat (SEPTTR) fungicidal activity on wheat seedlings; assay type: in vivo; settings: Zymoseptoria tritici; for pest or weed control at 121.5 g/ha: Low Volume, 121.5 g/H; for pest or weed control at 100 ppm: High Volume
# In short: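 Compounds in acetone were diluted with nine volumes of water containing 110 ppm Triton X-100, or as EC formulations with 0.1% Trycol 5941 for track spray. They were sprayed on first-leaf Yuma wheat seedlings inoculated with S. tritici before or after treatment. Plants spent 1 day dark and 2–3 days lit at 100% RH, 20 °C. Severity (0–100%) was scored once untreated plants were fully diseased; control was computed relative to untreated plants.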
# [2] = system: Puccinia triticina; Synonym: Puccinia recondita f sp. tritici; assay: Wheat Brown Rust (PUCCRT) fungicidal activity on wheat seedlings; assay type: in vivo; settings: for pest or weed control at 121.5 g/ha: Low Volume, 121.5 g/H; for pest or weed control at 100 ppm: High Volume
# In short: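 Yuma wheat seedlings (first leaf emerged) were sprayed to run-off with compound in acetone/water 1:9 (110 ppm Triton X-100), and P. triticina spores were inoculated before or after treatment. Plants were kept overnight in a 22 °C dark dew room at 100% RH, then moved to a 24 °C greenhouse; % control was based on first-leaf severity (0–100%) versus untreated plants.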
# [3] = 24 h, 1 Day Protectant, read-out: SEPTTR 1DP disease control
# [4] = 72 h, 3 Day Curative, read-out: SEPTTR 3DC disease control
# [5] = 24 h, 1 Day Protectant, read-out: PUCCRT 1DP disease control
# [6] = 72 h, 3 Day Curative, read-out: PUCCRT 3DC disease control
SMILES,"pest or weed control at 121.5 g/ha [1, 3] [%]","pest or weed control at 121.5 g/ha [1, 4] [%]",melting point [°C],"pest or weed control at 121.5 g/ha [2, 5] [%]","pest or weed control at 121.5 g/ha [2, 6] [%]","pest or weed control at 100 ppm [1, 3] [%]","pest or weed control at 100 ppm [1, 4] [%]","pest or weed control at 100 ppm [2, 5] [%]","pest or weed control at 100 ppm [2, 6] [%]"
COc1ccnc(C(=O)N[C@@H](C)C(=O)O[C@@H](C)C(c2ccc(F)cc2)c2ccc(F)cc2)c1OC(=O)C(C)(C)C [Cmpd 207],> 80,> 80,52 to 65,,,,,,
COc1cccc(C(c2cccc(OC)c2)[C@H](C)OC(=O)[C@H](C)NC(=O)c2nccc(OC)c2OCOC(C)=O)c1 [Cmpd 192],> 80,> 80,,> 80,> 80,,,,
COc1ccnc(C(=O)N[C@@H](C)C(=O)O[C@@H](C)C(c2ccc(C)c(F)c2)c2ccc(C)c(F)c2)c1OCOC(C)=O [Cmpd 194],> 80,> 80,,> 80,< 80,,,,
COc1ccnc(C(=O)N[C@@H](C)C(=O)O[C@@H](C)C(c2ccc(F)cc2)c2ccc(F)cc2)c1OCOC(=O)C(C)C [Cmpd 211],> 80,> 80,,> 80,> 80,,,,
COc1ccnc(C(=O)NCC(=O)O[C@@H](C)C(c2ccc(F)cc2)c2ccc(F)cc2)c1OCOC(C)=O [Cmpd 183],> 80,< 80,,> 80,> 80,,,,
COc1ccnc(C(=O)N[C@@H](C)C(=O)O[C@@H](C)C(c2cccc(Cl)c2)c2cccc(Cl)c2)c1O [Cmpd 100],,,,,,> 80,> 80,> 80,> 80
COc1ccnc(C(=O)NCC(=O)O[C@@H](C)C(c2ccc(F)cc2)c2ccc(F)cc2)c1O [Cmpd 113],,,,,,> 80,< 80,> 80,< 80
COc1ccnc(C(=O)N[C@@H](C)C(=O)O[C@@H](C)[C@@H](c2ccccc2)c2ccc(F)cc2)c1OC(C)=O [Cmpd 204],> 80,> 80,,> 80,> 80,,,,
COc1ccnc(C(=O)N[C@@H](C)C(=O)O[C@@H](C)C(c2ccc(F)c(Cl)c2)c2ccc(F)c(Cl)c2)c1O [Cmpd 132],,,,,,> 80,> 80,> 80,< 80
COc1ccnc(C(=O)N[C@@H](C)C(=O)O[C@@H](C)C(c2ccc(F)cc2)c2ccc(F)cc2)c1OC(=O)C(C)C [Cmpd 208],> 80,> 80,,> 80,< 80,,,,
COc1ccnc(C(=O)N[C@@H](C)C(=O)O[C@@H](C)C(c2cccs2)c2cccs2)c1OCOC(C)=O [Cmpd 144],< 80,< 80,,< 80,< 80,,,,
C#Cc1ccc(C(c2ccc(C#C)cc2)[C@H](C)OC(=O)[C@H](C)NC(=O)c2nccc(OC)c2O)cc1 [Cmpd 123],,,,,,< 80,> 80,< 80,
COc1ccnc(C(=O)N[C@@H](C)C(=O)O[C@@H](C)[C@@H](c2ccccc2)c2ccc(C(F)(F)F)cc2)c1OCOC(C)=O [Cmpd 175],> 80,> 80,,> 80,> 80,,,,
COc1ccnc(C(=O)N[C@@H](C)C(=O)O[C@@H](C)C(c2ccc(C)cc2)c2ccc(C)cc2)c1O [Cmpd 105],,,,,,> 80,> 80,> 80,> 80
COc1ccnc(C(=O)N[C@@H](CC(C)C)C(=O)O[C@@H](C)C(c2ccc(F)cc2)c2ccc(F)cc2)c1OCOC(C)=O [Cmpd 186],> 80,< 80,,< 80,,,,,
COc1ccnc(C(=O)N[C@@H](C)C(=O)O[C@@H](C)C(c2ccc(C)c(Cl)c2)c2ccc(C)c(Cl)c2)c1OCOC(C)=O [Cmpd 195],> 80,< 80,,> 80,< 80,,,,
COc1ccnc(C(=O)N[C@@H](C)C(=O)O[C@@H](C)C(O)(c2ccc(Cl)c(Cl)c2)c2ccc(Cl)c(Cl)c2)c1O [Cmpd 127],,,,,,< 80,,< 80,
COc1ccnc(C(=O)N[C@@H](C)C(=O)OC(C)C2c3ccccc3Oc3ccccc32)c1O (stereo partly shown) [Cmpd 102],,,,,,< 80,< 80,< 80,
COc1ccnc(C(=O)N[C@@H](C)C(=O)O[C@@H](C)C(c2cccc(F)c2)c2cccc(F)c2)c1O [Cmpd 99],,,,,,> 80,> 80,> 80,< 80
